Legend:
ABCB1 (P-glycoprotein) = ABCB1 (P-glycoprotein) (Homo sapiens, UniProt P08183); assay: competition of […]-IAAP photoaffinity labeling in membrane vesicles; type: binding
ABCG2 = target: T1, ABCG2 (Homo sapiens, UniProt Q9UNQ0)
T1 sequence (Q9UNQ0 1-655): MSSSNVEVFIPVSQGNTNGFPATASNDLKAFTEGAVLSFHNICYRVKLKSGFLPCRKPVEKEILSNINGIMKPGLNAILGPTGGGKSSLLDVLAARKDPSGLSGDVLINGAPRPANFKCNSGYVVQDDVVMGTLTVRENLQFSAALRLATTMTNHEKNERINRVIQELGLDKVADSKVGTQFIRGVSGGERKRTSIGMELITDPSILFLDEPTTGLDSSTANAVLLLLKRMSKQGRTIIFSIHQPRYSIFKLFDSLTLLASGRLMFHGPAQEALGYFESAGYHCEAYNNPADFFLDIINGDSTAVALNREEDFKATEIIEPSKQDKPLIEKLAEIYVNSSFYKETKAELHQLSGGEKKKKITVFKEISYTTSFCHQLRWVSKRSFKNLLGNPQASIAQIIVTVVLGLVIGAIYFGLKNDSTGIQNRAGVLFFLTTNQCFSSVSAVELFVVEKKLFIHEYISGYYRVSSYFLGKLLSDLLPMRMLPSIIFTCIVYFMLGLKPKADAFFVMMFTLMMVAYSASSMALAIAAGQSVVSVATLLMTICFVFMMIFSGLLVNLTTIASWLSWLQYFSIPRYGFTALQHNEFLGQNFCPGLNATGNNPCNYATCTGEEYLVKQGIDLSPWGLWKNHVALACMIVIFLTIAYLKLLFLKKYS

Chain of ABCB1 (P-glycoprotein) (P08183 whole entry): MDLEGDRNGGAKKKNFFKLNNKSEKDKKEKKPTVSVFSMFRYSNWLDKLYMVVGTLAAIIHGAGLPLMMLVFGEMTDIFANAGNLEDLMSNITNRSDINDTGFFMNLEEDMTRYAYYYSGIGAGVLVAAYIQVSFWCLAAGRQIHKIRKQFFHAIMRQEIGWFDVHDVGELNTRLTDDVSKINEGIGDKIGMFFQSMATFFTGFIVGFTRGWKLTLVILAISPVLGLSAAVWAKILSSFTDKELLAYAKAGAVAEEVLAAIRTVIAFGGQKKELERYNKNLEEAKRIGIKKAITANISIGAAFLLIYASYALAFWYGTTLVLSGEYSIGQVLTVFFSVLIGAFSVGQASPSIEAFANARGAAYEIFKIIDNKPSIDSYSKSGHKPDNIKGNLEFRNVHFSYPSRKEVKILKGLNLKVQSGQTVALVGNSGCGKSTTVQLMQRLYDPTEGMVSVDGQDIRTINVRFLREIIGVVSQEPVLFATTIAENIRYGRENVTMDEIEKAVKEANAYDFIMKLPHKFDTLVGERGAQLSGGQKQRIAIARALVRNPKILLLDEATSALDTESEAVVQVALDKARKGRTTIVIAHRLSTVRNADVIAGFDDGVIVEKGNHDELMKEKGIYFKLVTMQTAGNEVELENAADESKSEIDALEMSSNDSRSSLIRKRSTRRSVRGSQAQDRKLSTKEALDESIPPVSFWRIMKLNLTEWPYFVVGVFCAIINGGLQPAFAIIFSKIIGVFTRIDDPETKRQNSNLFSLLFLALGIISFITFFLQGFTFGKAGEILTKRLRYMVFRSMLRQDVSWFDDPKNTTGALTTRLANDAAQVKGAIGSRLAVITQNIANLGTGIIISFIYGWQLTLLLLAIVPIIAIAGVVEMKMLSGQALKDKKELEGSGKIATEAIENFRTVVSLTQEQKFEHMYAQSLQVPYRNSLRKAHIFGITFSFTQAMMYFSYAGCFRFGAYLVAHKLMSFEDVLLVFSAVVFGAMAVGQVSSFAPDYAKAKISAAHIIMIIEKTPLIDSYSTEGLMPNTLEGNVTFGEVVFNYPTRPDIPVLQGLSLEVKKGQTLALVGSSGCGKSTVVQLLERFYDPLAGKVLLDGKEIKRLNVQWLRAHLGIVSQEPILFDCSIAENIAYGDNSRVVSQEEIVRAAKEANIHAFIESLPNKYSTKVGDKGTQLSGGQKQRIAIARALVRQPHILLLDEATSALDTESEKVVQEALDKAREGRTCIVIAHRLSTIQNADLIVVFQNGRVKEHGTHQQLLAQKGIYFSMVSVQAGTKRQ

| IC50 (ABCB1 (P-glycoprotein)) [nM] | Structure (SMILES) | inhibition of [3H]-methotrexate uptake in membrane vesicles (ABCG2) |
| --- | --- | --- |
| 2800 ± 600 | CS(=O)(=O)CCNCc1ccc(-c2ccc3ncnc(Nc4ccc(OCc5cccc(F)c5)c(Cl)c4)c3c2)o1 [lapatinib, N-{3-chloro-4-[(3-fluorobenzyl)oxy]phenyl}-6-[5-({[2-(methylsulfonyl)ethyl]amino}methyl)-2-furyl]-4-quinazolinamine] | – |
| – | C#Cc1cccc(Nc2ncnc3cc(OCCOC)c(OCCOC)cc23)c1 [erlotinib] | inhibitory effect of lapatinib on methotrexate transport by ABCG2 membrane vesicles is comparable to that of erlotinib and FTC |

Reference: PMC2652245 (Cancer research, 2008)
